For test [1], the target named is T1, HSD2 (11β-hydroxysteroid dehydrogenase type 2) (Homo sapiens, UniProt P80365).
T1 construct: gene HSD11B2; recombinant HSD2 (pCMV6-XL5 HSD2, SC122552) in HEK-293T cell lysate
T1 sequence (P80365 1-405): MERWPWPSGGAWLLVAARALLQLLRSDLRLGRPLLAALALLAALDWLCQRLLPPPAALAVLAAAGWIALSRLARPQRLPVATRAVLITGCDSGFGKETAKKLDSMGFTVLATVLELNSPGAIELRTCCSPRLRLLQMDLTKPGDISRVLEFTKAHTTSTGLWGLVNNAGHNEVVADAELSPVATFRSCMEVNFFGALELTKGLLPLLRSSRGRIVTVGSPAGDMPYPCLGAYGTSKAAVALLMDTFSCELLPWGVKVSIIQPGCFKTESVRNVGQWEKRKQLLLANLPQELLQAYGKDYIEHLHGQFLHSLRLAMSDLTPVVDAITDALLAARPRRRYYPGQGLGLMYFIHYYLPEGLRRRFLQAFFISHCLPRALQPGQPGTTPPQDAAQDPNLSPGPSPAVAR
In words: inhibition of […]-CT to […]-OCDO conversion in HSD2-transfected HEK-293T lysate (TLC), Lineweaver-Burk and Dixon analysis. The test is classed as biochemical.

The next test concerns the target T2, CYP27A1 (Homo sapiens, UniProt Q02318).
T2 construct: endogenous, MDA-231 and HepG2 cells
T2 sequence (Q02318 34-531): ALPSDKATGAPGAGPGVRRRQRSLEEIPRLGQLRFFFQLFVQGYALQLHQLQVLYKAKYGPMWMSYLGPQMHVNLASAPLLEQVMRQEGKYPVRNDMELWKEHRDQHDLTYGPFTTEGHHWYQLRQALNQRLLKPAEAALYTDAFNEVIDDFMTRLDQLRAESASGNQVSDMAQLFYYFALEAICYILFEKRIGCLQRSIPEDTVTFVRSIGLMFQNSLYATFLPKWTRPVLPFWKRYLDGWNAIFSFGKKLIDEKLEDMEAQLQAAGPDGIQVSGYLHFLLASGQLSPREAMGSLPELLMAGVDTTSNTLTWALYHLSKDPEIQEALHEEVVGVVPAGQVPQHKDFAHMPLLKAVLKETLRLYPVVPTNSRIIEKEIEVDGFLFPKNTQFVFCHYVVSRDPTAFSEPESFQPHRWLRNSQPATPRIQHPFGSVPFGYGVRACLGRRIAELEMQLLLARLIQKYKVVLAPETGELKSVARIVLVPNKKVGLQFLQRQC
Nature of the test: inhibition of 27-hydroxylation of […]-CT in cells at […] (TLC); about […] (MDA-231) and […] (HepG2) reduction. The test is classed as cell-based.

Each structure is given as a SMILES string.

Turning to `C[C@@H](CO)CCC[C@@H](C)[C@H]1CC[C@H]2[C@@H]3C[C@@H](O)[C@@]4(O)C[C@@H](O)CC[C@]4(C)[C@H]3CC[C@]12C` [27H-CT, (25R)-cholestane-3β,5α,6β,26-tetrol], the Ki in test [1] amounted to 2300 nM.
With `CC(O)(CS(=O)(=O)c1ccc(F)cc1)C(=O)Nc1ccc(C#N)c(C(F)(F)F)c1` (centres unmarked) [bicalutamide], on CYP27A1, the inhibition at 10 µM is about 60%.
